The record followed here is ChEMBL document CHEMBL1201862, “PubChem BioAssay data set” (2004).

Test systems include SF-268; Malme-3M; OVCAR-4; NCI-H522; DMS-114; MOLT-4; EKVX; SN12C; A549; M14; OVCAR-3; SF-539; HCT-116; UACC-62; CCRF-CEM; HOP-92; SNB-75; CAKI-1.
Assay in all cases: growth of human tumour cells (NCI), 48 h

SMILES strings stand for the structures.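 96-well plates; 48 h exposure; 5 concentrations. Endpoints by linear interpolation between flanking doses. Not reached: highest tested concentration assigned. Here, GI50 denotes the concentration required for 50% inhibition of growth.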 Activity calls are given as the source filed them. Cut-off read from the data, not from the text of the source: active = GI50 up to about 1.1 µM and inactive = higher.

On to `COc1cc2nc(-c3cccc(N(C)C)c3)cc(O)c2cc1OC`, for which the GI50 in the assay with SF-268 is 16.6 µM (inactive); with Malme-3M it was 2.23 µM (inactive); in the assay on OVCAR-4, > 100 µM (inactive); with NCI-H522, 2.81 µM (inactive); in the assay with DMS-114 it was 4.73 µM (inactive); in the assay on MOLT-4, 5.19 µM (inactive). Further, the GI50 is 16.5 µM (inactive) with EKVX; 7.67 µM (inactive) in the assay with SN12C; 4.06 µM (inactive) in the assay on A549; 2.07 µM (inactive) with M14; 1.52 µM (inactive) in the assay with OVCAR-3; 2.66 µM (inactive) in the assay on SF-539. Also, the GI50 with HCT-116 is 4.8 µM (inactive); with UACC-62, 3.44 µM (inactive); with CCRF-CEM it was 3.87 µM (inactive); in the assay on HOP-92, > 100 µM (inactive).
On to `O=C1CCC2(c3ccccc3)OCC([C@@H](O)c3ccccc3)N12` (stereo partly drawn), for which the GI50 in the assay on SF-268, with Malme-3M, with OVCAR-4, with DMS-114, in the assay on EKVX and in the assay with SN12C was > 100 µM (inactive) in each case. In addition, the GI50 with A549, in the assay on SNB-75, in the assay with CAKI-1, with OVCAR-3, with SF-539 and with HCT-116 was > 100 µM (inactive) each time. For the same molecule, the GI50 in the assay on UACC-62, with CCRF-CEM and in the assay with HOP-92 was > 100 µM (inactive) in each case.
Turning to `C[N+](C)(C)CC1CCCC/C1=N\O` (stereo not drawn), the GI50 with SF-268, in the assay with Malme-3M, in the assay on OVCAR-4, in the assay on NCI-H522, with DMS-114 and in the assay with MOLT-4 was > 100 µM (inactive) throughout. The GI50 with EKVX, in the assay with SN12C, with A549, in the assay on M14, in the assay on OVCAR-3 and in the assay on SF-539 was > 100 µM (inactive) in each case. For the same molecule, the GI50 with HCT-116, in the assay with UACC-62, in the assay on CCRF-CEM and in the assay on HOP-92 was > 100 µM (inactive) throughout.
Consider `N#CNc1nc(C(=O)Nc2ccc(Cl)cc2)cc(-c2ccccc2)n1`, for which the GI50 in the assay on SF-268, in the assay with Malme-3M, in the assay on OVCAR-4, in the assay on DMS-114, in the assay on MOLT-4 and with EKVX was > 100 µM (inactive) throughout. Moreover, the GI50 with SN12C, with A549, in the assay with M14, with SNB-75, in the assay with CAKI-1 and with OVCAR-3 was > 100 µM (inactive) throughout. Besides, the GI50 with SF-539, in the assay on HCT-116, in the assay on UACC-62 and with HOP-92 was > 100 µM (inactive) throughout.
Take `O=C(O)C1OC(Oc2cc(O)c3c(=O)cc(-c4ccc(O)cc4)oc3c2)C(O)C(O)C1O` (stereo not drawn): the GI50 in the assay on SF-268, with Malme-3M, in the assay on OVCAR-4, in the assay on NCI-H522, in the assay with DMS-114 and in the assay with EKVX was > 100 µM (inactive) in each case. Moreover, the GI50 in the assay on SN12C, with A549, with M14, with SNB-75, in the assay with CAKI-1 and in the assay with OVCAR-3 was > 100 µM (inactive) throughout. The values for the GI50 in the assay with SF-539, with HCT-116 and in the assay on HOP-92 were > 100 µM (inactive), > 100 µM (inactive) and < 0.01 µM (active), respectively.
